According to patent US20240002344A1, “COMPOUNDS, COMPOSITIONS AND METHODS FOR HISTONE LYSINE DEMETHYLASE INHIBITION” (FibroGen, Inc., priority 2020, published 2024):
pIC50: −log10 of the molar value.

Legend:
[1] = target: T1, recombinant human KDM5B (Homo sapiens, UniProt Q9UGL1); experiment: 14CO2 capture enzymatic assay (decarboxylation of [1-14C] αKG), KDM5B; assay type: biochemical; details: 10 μM [1-14C] αKG, 90 μM non-labeled αKG, 50 μM peptide substrate, 37° C., 1 hour, final 1% DMSO
T1 sequence (Q9UGL1 374-755 limits assumed): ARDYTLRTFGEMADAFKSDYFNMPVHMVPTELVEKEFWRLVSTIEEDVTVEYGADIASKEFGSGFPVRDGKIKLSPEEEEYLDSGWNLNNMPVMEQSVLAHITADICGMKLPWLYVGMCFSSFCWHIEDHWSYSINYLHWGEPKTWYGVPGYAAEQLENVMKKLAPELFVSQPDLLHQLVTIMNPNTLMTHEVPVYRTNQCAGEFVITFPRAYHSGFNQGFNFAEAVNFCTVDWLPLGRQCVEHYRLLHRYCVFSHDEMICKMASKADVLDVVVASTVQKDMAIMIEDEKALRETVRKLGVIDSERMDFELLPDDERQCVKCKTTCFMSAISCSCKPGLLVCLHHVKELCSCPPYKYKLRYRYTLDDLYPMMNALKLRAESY
Procedure: (§1) Enzymatic activity was determined based on the capture of ^14CO2 released by the decarboxylation of [1-^14C] αKG (Zhang et al., Anal. Biochem., 1998, vol. 271, pp. 137-142). [1-^14C]alphaketoglutarate (αKG) was from Perkin-Elmer, H3K4me3 and H3K9me3 peptides were from Mimotopes. All other reagents were from Sigma. Reaction mixtures included the following components: Fe(SO4), [1-^14C] αKG, non-labeled αKG, ascorbate, peptide-substrate (H3K4me3: H-ARTK(me3)QTARKSTGGKAPRKQLA-OH. H3K9me3: H-ARTKQTARK(me3)STGGKAPRKQLA-OH), NaCl, Tween-20 and catalase in 25 mM HEPES buffer, pH 7.4. The enzymatic reactions were initiated by addition of recombinant human KDM5B or KDM4A enzyme (truncated enzyme produced in house by method and using sequence disclosed in Ng et al, Nature 448:87-91, 2007). The reactions were performed in 96-well microtiter plates (20 μL total assay volume) (Greiner #650201). ^14CO2 was captured on a glass fiber filter paper (Cat. No. IH-201-A, Inotech Biosystems International) soaked with saturated Ba(OH)2 that was laid on top of the 96-well plate. A microtiter plate sealer film (Thermal Seal cat #T7961100) was applied to the filter paper. The plate and filter paper were sandwiched between two custom made aluminum plates (Advanced Component Manufacturing, Burlingame, CA) and transferred to a 37° C. oven and allowed to incubate for 1 hour. After incubation, the filter paper was dried in a 103° C. oven for 40-60 minutes. To determine percent turnover, aliquots of the reaction mixture were spotted onto the filter paper and the filter paper was dried again. The dry filter paper was exposed to a storage phosphor screen for 24-72 hours and the images recorded using a Typhoon FLA 7000 Imager (Amersham Biosciences, Piscataway, NJ). Integrated spot intensities corresponding to control reactions lacking the enzyme were subtracted from integration results for enzyme containing reactions and data were converted to enzyme dependent percent ^14CO2 release. All enzymatic reactions were run in duplicates.
(§2) For IC50 determination, a 3-fold dilution series of compound was prepared and added to the reaction mixture (final 1% DMSO, v/v) prior to enzyme addition. The final reagent concentrations were: 10 μM Fe(SO4), 10 μM [1-^14C] αKG, 90 μM non-labeled αKG, 2 mM ascorbate, 50 μM peptide substrate, 75 mM NaCl, 0.01% Tween-20 and ˜2 units/μL catalase. IC50s were determined by non-linear fitting using Grafit version 7.0.

[2] = target: T2, recombinant human KDM4A (Homo sapiens, UniProt O75164); experiment: 14CO2 capture enzymatic assay (decarboxylation of [1-14C] αKG), KDM4A; assay type: biochemical; details: 10 μM [1-14C] αKG, 90 μM non-labeled αKG, 50 μM peptide substrate, 37° C., 1 hour, final 1% DMSO
T2 construct: made in house
T2 sequence (O75164 1-359 limits assumed): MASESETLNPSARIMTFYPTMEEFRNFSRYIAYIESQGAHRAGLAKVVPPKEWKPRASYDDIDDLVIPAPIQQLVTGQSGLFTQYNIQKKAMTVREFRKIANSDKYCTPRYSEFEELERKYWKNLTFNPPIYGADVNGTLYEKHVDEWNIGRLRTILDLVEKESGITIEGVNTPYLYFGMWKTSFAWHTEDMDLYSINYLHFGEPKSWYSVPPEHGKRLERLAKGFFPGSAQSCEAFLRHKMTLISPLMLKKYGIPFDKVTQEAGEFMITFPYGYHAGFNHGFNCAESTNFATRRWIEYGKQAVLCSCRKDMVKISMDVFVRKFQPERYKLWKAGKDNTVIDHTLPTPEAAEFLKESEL
Procedure: as §1, §2

| Structure (SMILES) | pIC50 [1] | pIC50 [2] |
| --- | --- | --- |
| N#Cc1cc(Oc2ccccc2Cl)cc(C(=O)CCC(=O)O)c1O [Example 136, 4-[5-(2-Chloro-phenoxy)-3-cyano-2-hydroxy-phenyl]-4-oxo-butyric acid] | 6.43 | < 4.40 |
| COc1cc(Cl)c(Cc2cc(C#N)c(O)c(C(=O)CCC(=O)O)n2)c(Cl)c1 [Example 147, 4-[4-Cyano-6-(2,6-dichloro-4-methoxy-benzyl)-3-hydroxy-pyridin-2-yl]-4-oxo-butyric acid] | 6.80 | < 4.40 |
| N#Cc1cc(-c2ccc(F)cc2)nc(C(=O)CCC(=O)O)c1O [Example 19, 4-[4-Cyano-6-(4-fluoro-phenyl)-3-hydroxy-pyridin-2-yl]-4-oxo-butyric acid] | 6.64 | < 4.40 |
| Cc1cc(C#N)cc(C)c1Cc1cc(C#N)c(O)c(C(=O)CCC(=O)O)n1 [Example 153, 4-[4-Cyano-6-(4-cyano-2,6-dimethyl-benzyl)-3-hydroxy-pyridin-2-yl]-4-oxo-butyric acid] | 6.49 | 4.77 |
| O=C(O)CCC(=O)c1nc(C(F)(F)F)cc(C(F)(F)F)c1O [Example 4, 4-(3-Hydroxy-4,6-bis-trifluoromethyl-pyridin-2-yl)-4-oxo-butyric acid] | 6.64 | 5.46 |
| N#Cc1cc(Oc2cccc(Cl)c2)cc(C(=O)CCC(=O)O)c1O [Example 138, 4-[5-(3-Chloro-phenoxy)-3-cyano-2-hydroxy-phenyl]-4-oxo-butyric acid] | 6.41 | < 4.40 |
| N#Cc1cc(Cc2c(F)cccc2C(F)(F)F)nc(C(=O)CCC(=O)O)c1O [Example 60, 4-[6-(2-Fluoro-6-trifluoromethyl-benzyl)-4-cyano-3-hydroxy-pyridin-2-yl]-4-oxo-butyric acid] | 6.48 | < 4.40 |
| COc1cccc(F)c1Cc1cc(C#N)c(O)c(C(=O)CCC(=O)O)n1 [Example 150, 4-[4-Cyano-6-(2-fluoro-6-methoxy-benzyl)-3-hydroxy-pyridin-2-yl]-4-oxo-butyric acid] | 6.55 | 4.57 |
| N#Cc1cc(-c2ccccn2)nc(C(=O)CCC(=O)O)c1O [Example 11, 4-(4-Cyano-5-hydroxy-[2,2′]bipyridinyl-6-yl)-4-oxo-butyric acid] | 6.23 | < 4.40 |
| N#Cc1cc(Cc2ccccc2OC(F)(F)F)nc(C(=O)CCC(=O)O)c1O [Example 49, 4-[4-Cyano-3-hydroxy-6-(2-trifluoromethoxy-benzyl)-pyridin-2-yl]-4-oxo-butyric acid] | 6.57 | < 4.40 |
| Cc1cc(C#N)c(O)c(C(=O)CCC(=O)O)n1 [Example 6, 4-(4-Cyano-3-hydroxy-6-methyl-pyridin-2-yl)-4-oxo-butyric acid] | 6.55 | < 4.40 |
| Cc1cc(C(F)(F)F)ccc1-c1cc(C#N)c(O)c(C(=O)CCC(=O)O)n1 [Example 96, 4-[4-Cyano-3-hydroxy-6-(2-methyl-4-trifluoromethyl-phenyl)-pyridin-2-yl]-4-oxo-butyric acid] | 6.51 | < 4.40 |
| Cc1cccc(C)c1Cc1cc(C(=O)CCC(=O)O)c(O)c(C#N)n1 [Example 133, 4-[2-Cyano-6-(2,6-dimethyl-benzyl)-3-hydroxy-pyridin-4-yl]-4-oxo-butyric acid] | 5.85 | < 4.40 |
| N#Cc1cc(Cc2ccccc2-c2ccccc2)nc(C(=O)CCC(=O)O)c1O [Example 52, 4-(6-Biphenyl-2-ylmethyl-4-cyano-3-hydroxy-pyridin-2-yl)-4-oxo-butyric acid] | 6.52 | < 4.40 |
| Cc1ccccc1-c1cc(C#N)c(O)c(C(=O)CCC(=O)O)n1 [Example 71, 4-(4-Cyano-3-hydroxy-6-o-tolyl-pyridin-2-yl)-4-oxo-butyric acid] | 6.51 | < 4.40 |
| N#Cc1cc(-c2ccccc2F)nc(C(=O)CCC(=O)O)c1O [Example 69, 4-[4-Cyano-6-(2-fluoro-phenyl)-3-hydroxy-pyridin-2-yl]-4-oxo-butyric acid] | 6.82 | < 4.40 |
| N#Cc1cc(Cc2c(Cl)cc(Cl)cc2Cl)cc(C(=O)CCC(=O)O)c1O [Example 131, 4-[3-Cyano-2-hydroxy-5-(2,4,6-trichloro-benzyl)-phenyl]-4-oxo-butyric acid] | 7.30 | < 4.40 |
| Cc1cc(C#N)ccc1-c1cc(C#N)c(O)c(C(=O)CCC(=O)O)n1 [Example 99, 4-[4-Cyano-6-(4-cyano-2-methyl-phenyl)-3-hydroxy-pyridin-2-yl]-4-oxo-butyric acid] | 6.57 | < 4.40 |
| N#Cc1cc(Oc2ccccc2)cc(C(=O)CCC(=O)O)c1O [Example 132, 4-(3-Cyano-2-hydroxy-5-phenoxy-phenyl)-4-oxo-butyric acid] | 6.51 | < 4.40 |
| Cc1ccc(C)c(-c2cc(C#N)c(O)c(C(=O)CCC(=O)O)n2)c1 [Example 94, 4-[4-Cyano-6-(2,5-dimethyl-phenyl)-3-hydroxy-pyridin-2-yl]-4-oxo-butyric acid] | 6.57 | < 4.40 |
| N#Cc1nc(Cc2ccccc2)cc(C(=O)CCC(=O)O)c1O [Example 160, 4-(6-Benzyl-2-cyano-3-hydroxy-pyridin-4-yl)-4-oxo-butyric acid] | 5.70 | < 4.40 |
| N#Cc1cc(Cc2ccccc2Cl)nc(C(=O)CCC(=O)O)c1O [Example 21, 4-[6-(2-Chloro-benzyl)-4-cyano-3-hydroxy-pyridin-2-yl]-4-oxo-butyric acid] | 6.68 | 4.54 |
| N#Cc1cc(Cc2cc(Cl)ccc2Cl)nc(C(=O)CCC(=O)O)c1O [Example 63, 4-[4-Cyano-6-(2,5-dichloro-benzyl)-3-hydroxy-pyridin-2-yl]-4-oxo-butyric acid] | 6.62 | 4.44 |
| N#Cc1cc(C#N)c(O)c(C(=O)CCC(=O)O)n1 [Example 3, 4-(4,6-Dicyano-3-hydroxy-pyridin-2-yl)-4-oxo-butyric acid] | 6.96 | 4.80 |
| N#Cc1cc(-c2cccc(Cl)c2)nc(C(=O)CCC(=O)O)c1O [Example 23, 4-[6-(3-Chloro-phenyl)-4-cyano-3-hydroxy-pyridin-2-yl]-4-oxo-butyric acid] | 6.82 | ≤ 4.40 |
| Cc1cccc(-c2cc(C#N)c(O)c(C(=O)CCC(=O)O)n2)c1C [Example 92, 4-[4-Cyano-6-(2,3-dimethyl-phenyl)-3-hydroxy-pyridin-2-yl]-4-oxo-butyric acid] | 6.43 | < 4.40 |
| Cc1cc(Cl)ccc1-c1cc(C#N)c(O)c(C(=O)CCC(=O)O)n1 [Example 90, 4-[6-(4-Chloro-2-methyl-phenyl)-4-cyano-3-hydroxy-pyridin-2-yl]-4-oxo-butyric acid] | 6.60 | < 4.40 |
| Cc1cc(Cl)c(Cc2cc(C#N)c(O)c(C(=O)CCC(=O)O)n2)c(Cl)c1 [Example 127, 4-[4-Cyano-6-(2,6-dichloro-4-methyl-benzyl)-3-hydroxy-pyridin-2-yl]-4-oxo-butyric acid] | 7.22 | < 4.40 |
| N#Cc1cc(Cc2ccccc2)cc(C(=O)CCC(=O)O)c1O [Example 117, 4-(5-Benzyl-3-cyano-2-hydroxy-phenyl)-4-oxo-butyric acid] | 6.55 | < 4.40 |
